Experimental data reported in PMC4664558 (Clinical Pharmacology and Therapeutics, 2015).
“And” between values parts separate entries of the source, which are not always exact repeats. Equal entries are not always repeated. Where two headings read alike, the source gives them in different places.

Tests used:
OATP1B2 = target: T1, OATP1B2 (Rattus norvegicus, UniProt Q9QZX8); assay: Inhibition of E217βDG active uptake in cryopreserved rat hepatocytes; conditions: for inhibition at 3 min, 100 μM: rat, cryopreserved rat hepatocytes, probe [3H] β-estradiol 17-β-D-glucuronide (E217βDG), 1 μM, 0.1 μCi; for Predicted R value: OATP1B1/1B3-based DDI, 1 + [I]inlet,max/Ki, Ki approximated by IC50
T1 sequence (Q9QZX8 1-687): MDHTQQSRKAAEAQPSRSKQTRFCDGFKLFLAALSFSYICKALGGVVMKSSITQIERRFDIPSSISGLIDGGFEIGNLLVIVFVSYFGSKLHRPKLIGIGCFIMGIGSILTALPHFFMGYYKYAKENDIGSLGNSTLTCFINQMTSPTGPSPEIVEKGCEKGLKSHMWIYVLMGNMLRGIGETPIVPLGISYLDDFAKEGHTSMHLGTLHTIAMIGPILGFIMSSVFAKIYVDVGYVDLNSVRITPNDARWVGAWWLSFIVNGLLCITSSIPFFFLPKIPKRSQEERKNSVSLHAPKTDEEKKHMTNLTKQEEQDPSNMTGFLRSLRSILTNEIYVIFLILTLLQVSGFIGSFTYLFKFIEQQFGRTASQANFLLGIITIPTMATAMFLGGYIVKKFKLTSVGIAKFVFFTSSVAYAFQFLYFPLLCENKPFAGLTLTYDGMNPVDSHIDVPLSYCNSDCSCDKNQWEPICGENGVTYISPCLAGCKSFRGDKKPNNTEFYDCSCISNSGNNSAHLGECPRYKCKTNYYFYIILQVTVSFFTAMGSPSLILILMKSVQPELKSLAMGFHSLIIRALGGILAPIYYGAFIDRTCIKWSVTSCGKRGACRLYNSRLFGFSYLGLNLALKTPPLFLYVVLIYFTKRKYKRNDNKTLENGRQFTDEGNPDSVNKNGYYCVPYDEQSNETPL

[1] = INPC cohort study: risk of myopathy after prescription of drug pairs; conditions: adjusted for age and sex; for Risk2 (myopathy risk for drug 2): drug 2 only
[2] = Peak plasma / gut / hepatic inlet concentration at the highest clinical dose; type: in vivo, human; conditions: for Inhibitor concentration ([I]): [I] equal to Cmax; for Maximal hepatic inlet concentration ([I]inlet,max): Cmax + (ka x Dose x FaFg/Qh)
CYP2D6 [3] = target: T2, CYP2D6 (Homo sapiens, UniProt P10635); assay: biochemical
T2 sequence (P10635 whole entry): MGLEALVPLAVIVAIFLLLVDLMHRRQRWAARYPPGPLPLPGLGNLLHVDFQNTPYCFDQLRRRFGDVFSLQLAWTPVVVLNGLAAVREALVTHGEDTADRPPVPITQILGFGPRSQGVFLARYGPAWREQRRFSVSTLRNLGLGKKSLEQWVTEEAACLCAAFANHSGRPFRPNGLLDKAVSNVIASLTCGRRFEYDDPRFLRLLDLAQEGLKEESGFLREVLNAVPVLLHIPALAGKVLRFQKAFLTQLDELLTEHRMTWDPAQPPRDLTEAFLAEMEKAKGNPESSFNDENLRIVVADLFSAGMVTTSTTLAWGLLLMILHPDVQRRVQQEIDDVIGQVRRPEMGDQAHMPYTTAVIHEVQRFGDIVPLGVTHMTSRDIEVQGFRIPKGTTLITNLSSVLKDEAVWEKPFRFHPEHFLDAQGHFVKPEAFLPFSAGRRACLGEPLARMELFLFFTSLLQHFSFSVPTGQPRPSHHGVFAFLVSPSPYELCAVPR

[4] = peak total plasma concentration at the highest clinical dose; cited from earlier work
[5] = cited from earlier work
rat L6 myotubes = assay: Myotoxicity in rat L6 myotubes; type: cell-based; conditions: 10 μM for 5 days, compared to DMSO control
CYP3A4 = CYP3A4 (Homo sapiens, UniProt P08684)
Chain of CYP3A4 (P08684 whole entry): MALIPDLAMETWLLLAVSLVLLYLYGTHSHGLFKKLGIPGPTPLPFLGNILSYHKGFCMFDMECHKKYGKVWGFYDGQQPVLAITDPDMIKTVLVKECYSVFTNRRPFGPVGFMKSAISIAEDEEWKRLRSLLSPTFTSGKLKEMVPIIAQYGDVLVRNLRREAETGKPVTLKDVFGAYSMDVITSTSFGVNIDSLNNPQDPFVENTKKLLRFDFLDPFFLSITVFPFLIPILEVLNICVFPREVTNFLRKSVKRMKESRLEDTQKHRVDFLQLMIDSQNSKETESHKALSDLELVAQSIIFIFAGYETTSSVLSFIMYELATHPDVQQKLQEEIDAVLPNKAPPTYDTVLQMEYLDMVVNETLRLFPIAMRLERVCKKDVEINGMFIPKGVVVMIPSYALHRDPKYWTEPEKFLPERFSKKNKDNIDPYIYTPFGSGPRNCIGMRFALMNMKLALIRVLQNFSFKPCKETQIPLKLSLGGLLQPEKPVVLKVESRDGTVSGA

CYP2C9 [6] = target: T3, CYP2C9 (Homo sapiens, UniProt P11712); assay: biochemical; conditions: pathway CYP2C9
T3 sequence (P11712 whole entry): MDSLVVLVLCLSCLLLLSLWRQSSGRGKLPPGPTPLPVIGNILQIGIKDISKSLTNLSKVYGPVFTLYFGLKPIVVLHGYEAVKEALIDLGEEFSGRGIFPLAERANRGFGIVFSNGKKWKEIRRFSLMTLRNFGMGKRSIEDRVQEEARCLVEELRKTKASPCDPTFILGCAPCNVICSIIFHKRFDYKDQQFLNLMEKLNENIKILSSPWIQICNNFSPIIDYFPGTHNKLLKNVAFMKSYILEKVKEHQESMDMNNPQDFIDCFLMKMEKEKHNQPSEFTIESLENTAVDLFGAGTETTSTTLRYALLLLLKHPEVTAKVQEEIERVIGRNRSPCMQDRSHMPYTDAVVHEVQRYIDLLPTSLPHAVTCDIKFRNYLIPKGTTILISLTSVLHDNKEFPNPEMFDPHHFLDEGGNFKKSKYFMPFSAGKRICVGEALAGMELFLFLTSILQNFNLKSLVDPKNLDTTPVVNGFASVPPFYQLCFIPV

CYP2D6 [7] = target: T2, CYP2D6
CYP2C9 [8] = target: T3, CYP2C9
CYP2C19 = CYP2C19 (Homo sapiens, UniProt P33261); assay: Fluorometric CYP inhibition assay; type: biochemical; conditions: for Ki: pathway CYP2C19
Chain of CYP2C19 (P33261 whole entry): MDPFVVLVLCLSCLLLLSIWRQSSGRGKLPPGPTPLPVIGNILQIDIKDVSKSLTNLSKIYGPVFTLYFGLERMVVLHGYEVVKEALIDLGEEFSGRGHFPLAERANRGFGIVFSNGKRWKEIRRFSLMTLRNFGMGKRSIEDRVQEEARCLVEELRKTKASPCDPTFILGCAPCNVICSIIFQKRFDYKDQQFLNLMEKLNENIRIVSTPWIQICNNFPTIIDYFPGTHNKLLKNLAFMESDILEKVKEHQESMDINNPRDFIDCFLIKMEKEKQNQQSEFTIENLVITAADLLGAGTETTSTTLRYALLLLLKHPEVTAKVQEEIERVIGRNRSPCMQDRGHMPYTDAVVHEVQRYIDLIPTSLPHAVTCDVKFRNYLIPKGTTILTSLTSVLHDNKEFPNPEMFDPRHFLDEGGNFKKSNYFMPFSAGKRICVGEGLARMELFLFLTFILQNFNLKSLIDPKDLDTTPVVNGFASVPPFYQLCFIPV

[9] = Dissociation constant (Ki), pathway CYP2D6
[10] = Unbound dissociation constant (Ki,u), pathway CYP2D6, Ki * fu,inc
[11] = Unbound dissociation constant (Ki,u), Ki * fu,inc

| Structure (SMILES) | inhibition at 3 min, 100 μM (OATP1B2) | Risk2 (myopathy risk for drug 2) [1] | Inhibitor concentration ([I]) [2] | Peak plasma concentration (Cmax) [4] | Maximal hepatic inlet concentration ([I]inlet,max) [2] | myotube death (rat L6 myotubes) | also measured |
| --- | --- | --- | --- | --- | --- | --- | --- |
| CCCN(CCC)CCc1cccc2c1CC(=O)N2 [Ropinirole] | 23.7 ± 2.7% | 0.018 | 0.103 µM | 26.9 (37) ng/ml |  |  | Ki (CYP2D6 [3]; [9]): 0.85 µM; Ki (CYP2D6 [3]; [10]): 0.71 µM |
| COCc1c(C(C)C)nc(C(C)C)c(/C=C/[C@@H](O)C[C@@H](O)CC(=O)O)c1-c1ccc(F)cc1 [cerivastatin] |  |  |  |  |  |  | risk of rhabdomyolysis relative to other statins [5]: 10 fold; risk of rhabdomyolysis relative to other statins ([5]; with concurrent use of gemfibrozil): 50 fold |
| CCOC(=O)N1CCC(=C2c3ccc(Cl)cc3CCc3cccnc32)CC1 [Loratadine] |  |  | 0.011 µM |  |  |  | Risk1 (myopathy risk for drug 1) ([1]; drug 1 only): 0.022 and 0.020 |
| CC(CN1c2ccccc2Sc2ccccc21)N(C)C (stereo not drawn) [Promethazine] | 17.7 ± 7.7% |  | 0.068 µM | 19.3 (36) ng/ml |  |  | Ki (CYP2D6 [3]; Dissociation constant (Ki)): 0.25 µM; Ki (CYP2D6 [3]; Unbound dissociation constant (Ki,u)): 0.22 µM |
| Cc1nnc2n1-c1ccc(Cl)cc1C(c1ccccc1)=NC2 [Alprazolam] | 54.5 ± 0.3% | 0.029 |  |  | 0.981 µM |  | IC50 (OATP1B2): 99.5 µM; Predicted R value (OATP1B2): 1.01 |
| Clc1ccc2c(c1)CCc1cccnc1C2=C1CCNCC1 [Desloratadine] |  |  |  |  |  | 73.3 ± 1.1% |  |
| CCC(C)(C)C(=O)O[C@H]1C[C@@H](C)C=C2C=C[C@H](C)[C@H](CC[C@@H]3C[C@@H](O)CC(=O)O3)[C@H]21 [Simvastatin] |  | 0.033 |  |  |  | 73.7 ± 2.6% |  |
| COc1ccc2[nH]c([S+]([O-])Cc3ncc(C)c(OC)c3C)nc2c1 (stereo not drawn) [Omeprazole] | 60.1 ± 4.8% | 0.059 |  |  | 19.586 µM |  | IC50 (OATP1B2): 84.3 µM; Predicted R value (OATP1B2): 1.23 |
| [H]/N=C(/NCCCCC)N/N=C/c1c[nH]c2ccc(OC)cc12 [Tegaserod] | 24.6 ± 15.3% | 0.020 | 0.009 µM | 2.7 (39) ng/ml |  | 97.9 ± 0.4% | Predicted R-values (CYP3A4): 1.17; Ki (CYP2C9 [6]; Dissociation constant (Ki)): 11.4 µM; Ki (CYP2C9 [6]; [11]): 10.5 µM; Ki (CYP2D6 [3]; [9]): 0.51 µM; Ki (CYP2D6 [3]; [10]): 0.47 µM; Predicted R-values (CYP2D6 [7]): 1.02; Predicted R-values (CYP2C9 [8]): 1.00; Predicted R-values (CYP2C19): 1.00; Ki (CYP2C19; Dissociation constant (Ki)): 9.2 µM; Ki (CYP2C19; [11]): 8.48 µM |
| CCC(C)(C)C(=O)O[C@H]1C[C@@H](C)C=C2C=C[C@H](C)[C@H](CC[C@@H](O)C[C@@H](O)CC(=O)O)[C@H]21 [Simvastatin acid] |  |  |  |  | 12.274 µM | 33.0 ± 2.1% |  |
